For data set [1], the system named is Smn protein in SMA patient fibroblast cells (GM03813). As to the kind of experiment: Smn protein assay in cultured cells (SMN HTRF). The note with it: SMA patient fibroblast cells, 48 hours; for EC1.5x for Smn protein expression: 7-point concentration curve, SMN HTRF, concentration producing 1.5 times Smn protein vs DMSO vehicle control; for maximum fold (Fold) increase of Smn protein: 7-point concentration data, fold relative to vehicle control. Format: cell-based, human. The gist of the method:
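Smn protein abundance in treated SMA fibroblasts was measured by HTRF after 48 h compound exposure. The reported EC1.5× is the concentration producing 1.5 times vehicle Smn levels.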

The subject of data set [2] is SMN2 minigene mRNA (SMN2-A minigene) in HEK293H cells. Nature of the data set: SMN2 minigene mRNA splicing RT-qPCR assay in cultured cells. Format: cell-based, human. The following applies: Homo sapiens, HEK293-H; concentration increasing full length SMN2 mRNA 1.5-fold relative to vehicle-treated cells; HEK293H cells with SMN2-A minigene, 24 hours, 7-point concentration data; read-out: EC1.5x for production of full length SMN2 mRNA. The essentials:
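Potency reflects the concentration that lifts full-length SMN2 minigene mRNA 1.5-fold above vehicle in stably transfected HEK293H cells after 24 h of treatment. Transcript abundance came from RT-qPCR as (1+E)^−Ct, normalized to GAPDH; endogenous SMN1/SMN2 are not detected.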

Some results are limits rather than exact numbers.

In the case of `Cc1cn2cc(-c3cc(=O)n4cc(C5CCN(C(C)C)CC5)ncc4n3)ccc2n1` [Compound 627, 2-(2-methylimidazo[1,2-a]pyridin-6-yl)-7-[1-(propan-2-yl)piperidin-4-yl]-4H-pyrazino[1,2-a]pyrimidin-4-one], the melting point (usually the temperature of the solid-liquid transition) fell in the range of 229 to 231 °C. Also, in data set [1], the “EC1.5x for Smn protein expression” value was “** (an EC1.5× between >1 μM and ≤3 μM is indicated by two stars (**))”; the “maximum fold (Fold) increase of Smn protein” value (“maximum fold (Fold) increase” below) is “**** (a fold increase between >1.5 and ≤1.65 is indicated by four stars (****))”. In addition, the EC (1.5-fold increase) in data set [2] was 0.1 to 0.3 µM.

`Cc1cn2cc(-c3cc(=O)n4cc(C5CCN(C6CCC6)CC5)ncc4n3)ccc2n1` [Compound 628, 7-(1-cyclobutylpiperidin-4-yl)-2-(2-methylimidazo[1,2-a]pyridin-6-yl)-4H-pyrazino[1,2-a]pyrimidin-4-one]: the melting point was in the range of 249 to 251 °C. For the same compound, in data set [1], the “EC1.5x for Smn protein expression” value was “* (An EC1.5× for Smn protein expression between >3 μM and ≤10 μM is indicated by one star (*))”; the “maximum fold (Fold) increase” value was “**** (a fold increase between >1.5 and ≤1.65 is indicated by four stars (****))”. Also, the EC (1.5-fold increase) in data set [2] was in the range of 0.3 to 1 µM.

The compound `CCc1nc(C)cn2nc(-c3cc(=O)n4cc(N5CCN(CC)[C@H](C)C5)ccc4n3)cc12` [Compound 630, 7-[(3R)-4-ethyl-3-methylpiperazin-1-yl]-2-(4-ethyl-6-methylpyrazolo[1,5-a]pyrazin-2-yl)-4H-pyrido[1,2-a]pyrimidin-4-one] registered a melting point of 256 to 258 °C. Further, in data set [1], the “EC1.5x for Smn protein expression” value was “**** (an EC1.5x≤0.3 μM is indicated by four stars (****))” and the “maximum fold (Fold) increase” value is listed as “***** (a fold increase >1.65 is indicated by five stars (*****))”. Also, in data set [2], the EC (1.5-fold increase) is < 0.1 µM.

In turn, `CCCN1CCN(c2ccc3nc(-c4cc5c(CC)nc(C)cn5n4)cc(=O)n3c2)C[C@H]1C` [Compound 631, 2-(4-ethyl-6-methylpyrazolo[1,5-a]pyrazin-2-yl)-7-[(3R)-3-methyl-4-propylpiperazin-1-yl]-4H-pyrido[1,2-a]pyrimidin-4-one] yielded a melting point of 243 to 245 °C. Further, in data set [1], the “EC1.5x for Smn protein expression” value is “*** (an EC1.5× between >0.3 μM and ≤1 μM is indicated by three stars (***))”; the “maximum fold (Fold) increase” value was “***** (a fold increase >1.65 is indicated by five stars (*****))”. Moreover, the EC (1.5-fold increase) in data set [2] is 0.1 to 0.3 µM.

On to `CCc1nc(C)cn2nc(-c3cc(=O)n4cc(N5CCN(CCO)[C@H](C)C5)ccc4n3)cc12` [Compound 632, 2-(4-ethyl-6-methylpyrazolo[1,5-a]pyrazin-2-yl)-7-[(3R)-4-(2-hydroxyethyl)-3-methylpiperazin-1-yl]-4H-pyrido[1,2-a]pyrimidin-4-one], for which the melting point was 238 to 241 °C. For the same compound, in data set [1], the “EC1.5x for Smn protein expression” value was “**** (an EC1.5x≤0.3 μM is indicated by four stars (****))” and the “maximum fold (Fold) increase” value is on record as “***** (a fold increase >1.65 is indicated by five stars (*****))”. Also, the EC (1.5-fold increase) in data set [2] is < 0.1 µM.

`CCc1nc(C)cn2nc(-c3cc(=O)n4cc(N5C[C@@H](C)N[C@@H](C)C5)ccc4n3)cc12` [Compound 633, 7-[(3R,5S)-3,5-dimethylpiperazin-1-yl]-2-(4-ethyl-6-methylpyrazolo[1,5-a]pyrazin-2-yl)-4H-pyrido[1,2-a]pyrimidin-4-one] came in with a melting point of 258 to 260 °C. In addition, in data set [1], the “EC1.5x for Smn protein expression” value is recorded as “**** (an EC1.5x≤0.3 μM is indicated by four stars (****))” and the “maximum fold (Fold) increase” value is “***** (a fold increase >1.65 is indicated by five stars (*****))”. For the same compound, the EC (1.5-fold increase) in data set [2] is < 0.1 µM.

The record behind these values is US11753407B2, “Compounds for treating spinal muscular atrophy” (PTC Therapeutics, Inc., priority 2012, dated 2023).
